In article PMC12301034, “Design and Synthesis of Boronic Chalcones with Dual Anticancer and Anti-Inflammatory Activity” (Molecules, 2025):
Entries after “also recorded” stand apart in the source; their conditions may differ. Where two headings read alike, the source gives them in different places.

Columns and labels:
[1] = Metabolic stability in human liver microsomes; assay type: in vitro ADME
Protocol: The metabolic stability of test compounds and controls [imipramine (Sigma-Aldrich, St. Louis, MO, USA), verapamil (Sigma-Aldrich, St. Louis, MO, USA), and warfarin (Sigma-Aldrich, St. Louis, MO, USA)] were assessed using human pooled liver human microsomes (20 mg/mL) (GIBCO, Frederick, MD, USA) and pooled liver CD1 mouse microsomes (20 mg/mL) (GIBCO, Frederick, MD, USA). […] Microsomal suspensions were thawed and diluted in phosphate buffer to obtain a final concentration of 0.25 mg/mL. A solution of NADPH (Sigma-Aldrich, St. Louis, MO, USA) at […] was also prepared in phosphate buffer. […] The plate was incubated at 37 °C under shaking (100 rpm). […] The reactions were stopped by adding quenching solution (75 μL) consisting of acetonitrile:methanol (1:1) with an internal standard (50 nM). Samples were centrifuged (3500 rpm, 30 min) to remove precipitated microsomal proteins, and the supernatant fractions were analyzed by an LCMS-8045 system (Shimazu, Kyoto, Japan). The chromatographic analysis was performed using a Supelco Ascentis Express C18 column (3 cm × 2.1 mm, 5 μm). The mobile phases consisted of water + 0.1% formic acid (A) and acetonitrile + 0.1% formic acid (B). […] The run time was 2 min, with a sample injection volume of 10 μL and a flow rate of 0.7 mL/min. Metabolic stability was assessed by calculating the peak area ratios (analyte/internal standard) and converting them into the percentage of the compound remaining, using the area ratio at time 0 as 100%.

TNF = assay: Anti-inflammatory assay, TNF in LPS-stimulated THP-1 cells (CBA); assay type: cell-based, human
Protocol: For this assay, THP-1 (BCRJ cód. 0234) cells were cultured in Roswell Park Memorial Institute (RPMI-1640, Sigma-Aldrich; Saint Louis, MO, USA) media supplemented with 2 mM L-glutamine, 1 mM sodium pyruvate, 1.50 g/L of sodium bicarbonate, and 10% fetal bovine serum. For obtaining Macrophage-like cells, 250,000 cells per well were plated in a 24-well cell culture plate. A total of 20 ng/mL of Forbol 12-miristato-13-acetato (PMA) was added to each well, and the cells were incubated for 48 h at 37 °C with 5% CO2. After the 48 h, the wells were washed with 1X PBS, and fresh RPMI-1640 media was added. The cells were then incubated for 24 h at 37 °C and 5% CO2. For the cell’s stimulations, after the 24 h, the well was washed with PBS and fresh RPMI1640 media without fetal bovine serum added. For the positive controls of the assay, 3 wells were stimulated with LPS (1 ng/µL) diluted in the same volume and media used for the drugs stimulation. Two different concentrations (2 and 4 µg/mL) were evaluated for each molecule, which were determined to be non-cytotoxic through a cell viability assay. After a 24 h period, the supernatant was removed and used in the cytokine quantification assay. A kit for inflammatory cytokines, BD® Cytometric Bead Array CBA Human Inflammatory, was employed for this assay, containing the following human cytokines: IL-8, IL-1β, IL-6, and TNF. Standard cytokines were prepared in 9 different concentrations: 1:256, 1:128, 1:64, 1:32, 1:16, 1:8, 1:4, 1:2, and 1:1 (“top standard”). Analysis was performed using a Flow Cytometer FACS Aria Fusion BD (Bioscence, Houston, TX, USA). Data analysis was conducted using Prism software (version 10.4.1).

HCT116 p53^+/+ cells = assay: SRB cytotoxicity assay on HCT116 p53+/+ cells; assay type: cell-based, human; conditions: Homo sapiens, HCT-116, 48 h of treatment
Description: The SCC-25 (ATCC® CRL-1628™), Detroit-562 (ATCC® CCL-138™), and THP-1 (ATCC® TIB-202™) cells were purchased from Rio de Janeiro Cell Bank (Duque de Caxias, Brazil), and NOK-si was kindly provided by Prof. Carlos Rossa from the School of Dentistry—UNESP. All the cells were cultivated according to standard conditions. Human colorectal adenocarcinoma HCT116 cell lines (ATCC® CCL-247™) expressing p53 and its p53-null isogenic derivative (HCT116 p53^−/−) were provided by B. Vogelstein (The Johns Hopkins Kimmel Cancer Center, Baltimore, MD, USA).
HCT p53^+/+ and HCT p53^−/− cell lines were seeded in 96-well plates, with a concentration of 5000 cells/well, and allowed to adhere overnight. Afterwards, they were treated with serial dilutions of the compounds for an additional 48 h (compounds were prepared at 30 mM, in DMSO, and tested with a starting concentration of 50μM and 15 μM). Cells passed then through a series of essential steps (fixation with 10% trichloroacetic acid, for 1 h at 4 °C; staining with 0.4% sulforhodamine B (SRB); wash with 1% acetic acid; and solubilization with 10 mM Tris-Base); subsequently, absorbance was measured at 510 nm in a microplate reader (Biotek Instruments Inc., Synergy, MX, USA). IC50 values were determined using GraphPad Prism software, Version 7.0 (La Jolla, CA, USA).

IL-8 = assay: Anti-inflammatory assay, IL-8 in LPS-stimulated THP-1 cells (CBA); assay type: cell-based, human; conditions: 2 and 4 µg/mL, 24 h
Protocol: For this assay, THP-1 (BCRJ cód. 0234) cells were cultured in Roswell Park Memorial Institute (RPMI-1640, Sigma-Aldrich; Saint Louis, MO, USA) media supplemented with 2 mM L-glutamine, 1 mM sodium pyruvate, 1.50 g/L of sodium bicarbonate, and 10% fetal bovine serum. For obtaining Macrophage-like cells, 250,000 cells per well were plated in a 24-well cell culture plate. A total of 20 ng/mL of Forbol 12-miristato-13-acetato (PMA) was added to each well, and the cells were incubated for 48 h at 37 °C with 5% CO2. After the 48 h, the wells were washed with 1X PBS, and fresh RPMI-1640 media was added. The cells were then incubated for 24 h at 37 °C and 5% CO2. For the cell’s stimulations, after the 24 h, the well was washed with PBS and fresh RPMI1640 media without fetal bovine serum added. For the positive controls of the assay, 3 wells were stimulated with LPS (1 ng/µL) diluted in the same volume and media used for the drugs stimulation. Two different concentrations (2 and 4 µg/mL) were evaluated for each molecule, which were determined to be non-cytotoxic through a cell viability assay. After a 24 h period, the supernatant was removed and used in the cytokine quantification assay. A kit for inflammatory cytokines, BD® Cytometric Bead Array CBA Human Inflammatory, was employed for this assay, containing the following human cytokines: IL-8, IL-1β, IL-6, and TNF. […]

- intrinsic clearance (Clint) in HLM [1]: high clearance
- microsomal CLint at 0.51 μM ([1]; human, microsomes, pH 7.4): 56.8 µL/min/mg
- half-life at 0.51 μM ([1]; human, pooled liver microsomes, pH 7.4, read-out: Human Liver Microsome (HLM) T1/2): 48.8 min
- microsomal CLint at 0.51 μM ([1]; human, pooled liver microsomes, pH 7.4, read-out: intrinsic clearance (Clint) in HLM): 77 µL/min/mg
SMILES: COc1cccc(C(=O)/C=C/c2cccc(B(O)O)c2)c1 [Compound 5, (E)-(3-(3-(3-methoxyphenyl)-3-oxoprop-1-en-1-yl)phenyl)boronic acid]
- TNF levels relative to untreated THP-1 cells (TNF; 7.1 μM): reducing them below those of untreated THP-1 cells
- reduction of TNF levels (TNF; 2 and 4 µg/mL, 24 h): significantly reduced; also recorded: pronounced reduction
- IC50 (HCT116 p53^+/+ cells): 2500 ± 170 nM
- reduction of IL-8 levels (IL-8): effectively reduced cytokine levels
